Assay results reported in publication PMC9821961, “Ring-Modified Histidine-Containing Cationic Short Peptides Exhibit Anticryptococcal Activity by Cellular Disruption” (Molecules, 2022).
Converted amounts (≈) assume the structure as drawn. Where two headings read alike, the source gives them in different places. Blank lines part the entries; values can stand above or below the compound they belong to.

How the values were obtained:
[1] = system: C. krusei; experiment: microbe, parasite or virus in culture; assay type: cell-based, Candida krusei
Excerpt: (§1) Microbial strains: Microbial strains were procured from National Culture Collection of Pathogenic Fungi (NCCPF) at the Postgraduate Institute of Medical Education & Research (PGIMER), Chandigarh and Microbial Type Culture Collection and Gene bank (MTCC) at the Institute of Microbial Technology (IMTECH), Chandigarh, India. Peptides were screened against five different strains of fungi: viz. Candida albicans (NCCPF400034), Candida glabrata (MTCC 3019), Candida parapsilosis (NCCPF 440002), Candida krusei (NCCPF 440002) and Cryptococcus neoformans (NCCPF250316), and five strains of bacteria: viz. Escherichia coli (MTCC 2961), Staphylococcus aureus (MTCC 3160), Enterococcus faecalis (MTCC 439), Streptococcus pyogenes (MTCC 442) and Pseudomonas aeruginosa (MTCC 3542).
(§2) Growth media: Antifungal susceptibility testing was carried out using standard broth microdilution assays as per the Clinical and Laboratory Standards Institute (CLSI) guidelines for fungi. RPMI 1640 (Sigma), yeast extract, peptone and dextrose (YPED, Himedia) were used as the incubation broths. The cells were diluted to a cell density of 10^3 colony forming unit (CFU/mL) and incubated at 30 °C for 48 h. Furthermore, Muller Hinton (Himedia) media was utilized for bacterial strains and antibacterial activity was evaluated per CLSI guidelines for bacteria. Bacterial cells were diluted to a cell density of 10^5 CFU/mL and incubated at 37 °C for 24 h. Amphotericin B (Himedia, India) and rifampicin (Himedia, India) were used as standard drugs for the evaluation of activity against all the fungal and bacterial strains, respectively.
(§3) The stock solutions of peptides (2 mg/mL) were prepared in DMSO. Specific amounts of peptide from stock solution were added to a 96-well microtiter plate containing 100 μL of growth media and then serially diluted two-fold. A further 100 μL of growth media containing microbial cells were added to each well and incubated at 30–37 °C for 24–48 h. The optical density (OD) was measured at 600 nm using a BioStack Ready (BioTek Instruments, Winooski, VT, USA) microplate reader to analyze microbial growth inhibition, and IC50 and MIC values were calculated. To visualize the growth and inhibition pattern, a solution of 3-(4,5-dimethylthiazol-2-yl)-2,5-diphenyltetrazolium bromide (MTT) in water was added to the plate and incubated for 2–3 h. MTT reacts with the mitochondrial dehydrogenases, which are present only in a viable cell, to give blue colored formazan crystals. Therefore, a darker color indicates a high number of viable cells; however, non-viable cells appear pale or colorless.

[2] = system: C. glabrata; experiment: microbe, parasite or virus in culture; assay type: cell-based, Candida glabrata
Excerpt: as §1, §2, §3

[3] = system: C. albicans; experiment: microbe, parasite or virus in culture; assay type: cell-based, Candida albicans
Excerpt: as §1, §2, §3

[4] = system: C. neoformans; experiment: microbe, parasite or virus in culture; assay type: cell-based, Cryptococcus neoformans
Excerpt: as §1, §2, §3

[5] = system: C. neoformans cells; experiment: CLSM FITC-labeled peptide uptake assay; assay type: cell-based, Cryptococcus neoformans; conditions: FITC-tagged peptide, 12 h
Experimental: After incubation, cells were harvested by centrifugation at 2000× g for 10 min at 4 °C and suspended in PBS and mounted on a slide for visualization under a confocal microscope with excitation and emission wavelengths of 488 nm and 515 nm, respectively.

[6] = system: C. parapsilosis; experiment: microbe, parasite or virus in culture; assay type: cell-based, Candida parapsilosis
Excerpt: as §1, §2, §3

[7] = system: C. neoformans cells; experiment: Time kill assay; conditions: time-kill profile over 24 h
[8] = system: Cryptococcal cells; experiment: microbe, parasite or virus in culture; conditions: Cryptococcus neoformans, read-out: MIC Alone
[9] = system: Cryptococcal cells

IC50 ([1]; 48 h): >35.2 µg/mL | MIC ([1]; 48 h): >64.0 µg/mL | IC50 ([2]; 48 h): >35.2 µg/mL | MIC ([2]; 48 h): >64.0 µg/mL | IC50 ([3]; 48 h): >35.2 µg/mL | MIC ([3]; 48 h): >64.0 µg/mL | MIC ([4]; 48 h): >64.0 µg/mL | IC50 ([6]; 48 h): >35.2 µg/mL | MIC ([6]; 48 h): >64.0 µg/mL
SMILES: COC(=O)[C@H](Cc1ncn(Cc2ccc([N+](=O)[O-])cc2)c1I)NC(=O)[C@@H](N)Cc1c[nH]c2ccccc12 [10h]
Fluorescence of cells incubated with FITC-labeled peptide (CLSM) [5]: did not show any fluorescence

IC50 ([1]; Pichia kudriavzevii, C. krusei, read-out: IC50): 0.36 µg/mL (≈ 0.39 µM) | MIC ([1]; Pichia kudriavzevii, C. krusei, read-out: MIC): 0.72 µg/mL (≈ 0.779 µM) | MIC [8]: 1 µg/mL (≈ 1.08 µM) | IC50 ([2]; Nakaseomyces glabratus, C. glabrata, read-out: IC50): 0.18 µg/mL (≈ 0.195 µM) | MIC ([2]; Nakaseomyces glabratus, C. glabrata, read-out: MIC): 0.36 µg/mL (≈ 0.39 µM) | IC50 ([3]; Candida albicans, C. albicans, read-out: IC50): 0.36 µg/mL (≈ 0.39 µM) | MIC ([3]; Candida albicans, C. albicans, read-out: MIC): 0.72 µg/mL (≈ 0.779 µM) | IC50 ([4]; Cryptococcus neoformans, C. neoformans, concentration that leads to ~50% inhibition of growth, read-out: IC50): 0.5 µg/mL (≈ 0.541 µM) | MIC ([4]; Cryptococcus neoformans, C. neoformans, lowest test concentration with no detectable growth, read-out: MIC): 1 µg/mL (≈ 1.08 µM) | IC50 ([6]; Lodderomyces parapsilosis, C. parapsilosis, read-out: IC50): 0.36 µg/mL (≈ 0.39 µM) | MIC ([6]; Lodderomyces parapsilosis, C. parapsilosis, read-out: MIC): 0.72 µg/mL (≈ 0.779 µM) | Fold Decrease in MIC ([9]; combination 10o + Amp B): 4 | MIC In Combination ([9]; combination 10o + Amp B): 0.250 µg/mL | Fold Decrease in MIC ([9]; combination 10d + Amp B): 8 | MIC In Combination ([9]; combination 10d + Amp B): 0.125 µg/mL
SMILES: C[C@@H]1[C@H](O)[C@@H](C)/C=C/C=C/C=C/C=C/C=C/C=C/C=C/[C@H](O[C@@H]2O[C@H](C)[C@@H](O)[C@H](N)[C@@H]2O)C[C@@H]2O[C@](O)(C[C@@H](O)C[C@@H](O)[C@H](O)CC[C@@H](O)C[C@@H](O)CC(=O)O[C@H]1C)C[C@H](O)[C@H]2C(=O)O [Amphotericin B, reference compound]
Time after which growth/CFUs of cryptococcal cells dropped or were inhibited [7]: 4 h | Effect ([9]; combination 10o + Amp B): Synergistic | FICI ([9]; combination 10o + Amp B): 0.31 | Effect ([9]; combination 10d + Amp B): Synergistic | FICI ([9]; combination 10d + Amp B): 0.18

SMILES: OC(Cn1cncn1)(Cn1cncn1)c1ccc(F)cc1F [Flu, fluconazole]
MIC [8]: 10 µg/mL (≈ 32.7 µM) | Effect ([9]; combination 10o + Flu): Additive | FICI ([9]; combination 10o + Flu): 1.00 | Fold Decrease in MIC ([9]; combination 10o + Flu): 2 | MIC In Combination ([9]; combination 10o + Flu): 5.0 µg/mL | Effect ([9]; combination 10d + Flu): Synergistic | FICI ([9]; combination 10d + Flu): 0.19 | Fold Decrease in MIC ([9]; combination 10d + Flu): 16 | MIC In Combination ([9]; combination 10d + Flu): 0.625 µg/mL | Fold Decrease in MIC ([9]; combination 10d + Flu, listed as fluconazole): approx. 16 | MIC Alone ([9]; cryptococcal cells, agent alone): 10.0 µg/mL (≈ 32.7 µM)
